Series [1] has as its target T1, Cytochrome P450 1A1 (Homo sapiens, UniProt P04798).
T1 sequence (P04798 whole entry): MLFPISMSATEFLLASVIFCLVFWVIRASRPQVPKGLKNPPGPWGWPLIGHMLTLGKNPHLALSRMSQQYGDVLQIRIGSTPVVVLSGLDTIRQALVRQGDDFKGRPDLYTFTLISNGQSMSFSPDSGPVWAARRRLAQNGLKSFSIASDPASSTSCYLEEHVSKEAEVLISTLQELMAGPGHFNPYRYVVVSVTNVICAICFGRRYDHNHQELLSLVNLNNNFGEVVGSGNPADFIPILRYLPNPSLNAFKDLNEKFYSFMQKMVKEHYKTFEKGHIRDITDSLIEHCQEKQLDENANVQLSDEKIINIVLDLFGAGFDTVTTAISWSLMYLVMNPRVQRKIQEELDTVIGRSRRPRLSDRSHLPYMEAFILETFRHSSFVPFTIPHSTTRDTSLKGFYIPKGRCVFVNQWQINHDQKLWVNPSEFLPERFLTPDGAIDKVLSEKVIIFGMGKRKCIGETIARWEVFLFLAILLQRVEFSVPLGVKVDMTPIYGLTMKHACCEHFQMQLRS
Put plainly: Inhibition of CYP1A1 EROD activity assessed as inhibition of deethylation of 7-ethoxyresorufin to resorufin. In kind it is ADME.

For series [2], the target named is T2, Cytochrome P450 1B1 (Homo sapiens, UniProt Q16678).
T2 sequence (Q16678 whole entry): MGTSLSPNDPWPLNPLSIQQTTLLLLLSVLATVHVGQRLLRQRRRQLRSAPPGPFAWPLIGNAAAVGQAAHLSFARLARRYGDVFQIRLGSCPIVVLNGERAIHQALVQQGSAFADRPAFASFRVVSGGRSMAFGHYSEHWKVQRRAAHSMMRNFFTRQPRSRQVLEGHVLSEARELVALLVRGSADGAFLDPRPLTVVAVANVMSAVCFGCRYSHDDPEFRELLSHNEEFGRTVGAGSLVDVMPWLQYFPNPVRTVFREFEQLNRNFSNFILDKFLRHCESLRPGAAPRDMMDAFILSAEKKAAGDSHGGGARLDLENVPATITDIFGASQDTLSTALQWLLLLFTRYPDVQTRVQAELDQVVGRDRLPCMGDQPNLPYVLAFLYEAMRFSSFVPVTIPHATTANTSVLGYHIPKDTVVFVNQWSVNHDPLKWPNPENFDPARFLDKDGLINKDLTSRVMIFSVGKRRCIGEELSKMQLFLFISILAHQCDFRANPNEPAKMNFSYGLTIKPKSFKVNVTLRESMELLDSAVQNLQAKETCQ
Put plainly: Inhibition of CYP1B1 EROD activity assessed as inhibition of deethylation of 7-ethoxyresorufin to resorufin. In kind it is ADME.

Series [3] relates to MDA-MB-468. Put plainly: Anticancer activity against CYP1 expressing human MDA-MB-468 cells by MTT assay. The series is classed as functional, cell-based. Background: Tetrazolium dyes change colour on reduction, which living cells bring about.
The test system of series [4] is MCF-10A. Put plainly: Anticancer activity against non-CYP1 expressing human MCF10A cells by MTT assay. In kind it is functional, cell-based.
The subject of series [5] is MDA-MB-468. Put plainly: Activation factor, ratio of IC50 for non-CYP1 expressing human MCF10A to IC50 for CYP1 expressing human MDA-MB-468 cells. The series is classed as functional.
The target of series [6] is T1, Cytochrome P450 1A1. Put plainly: Activity at recombinant CYP1A1 assessed as E5M1 metabolite elution time at 10 uM by HPLC analysis. The series is classed as ADME. To be noted: recombinant enzyme.
Series [7] addresses Cytochrome P450 1B1 (Homo sapiens) (UniProt Q16678). Put plainly: Activity at recombinant CYP1B1 assessed as E5M1 metabolite elution time at 10 uM by HPLC analysis. To be noted: recombinant enzyme.
Series [8] addresses T3, CYP1A1 (Homo sapiens, UniProt P04798).
T3 sequence (P04798 whole entry): T1 sequence (P04798 whole entry)
Put plainly: Activity at CYP1A1 in recombinant human CYP1A1 microsomes assessed as parent compound remaining after 20 mins by HPLC analysis.

Series [9] has as its target T1, Cytochrome P450 1A1. Put plainly: Activity at recombinant CYP1A1 assessed as apigenin production at 10 uM after 20 mins by HPLC analysis. To be noted: recombinant enzyme. The series is classed as ADME.
In series [10] the target is T1, Cytochrome P450 1A1. Put plainly: Activity at recombinant CYP1A1 assessed as scutellarein production at 10 uM after 20 mins by HPLC analysis. The series is classed as ADME. To be noted: recombinant enzyme.
The target in series [11] is T1, Cytochrome P450 1A1. Put plainly: Activity at recombinant CYP1A1 assessed as luteolin production at 10 uM after 20 mins by HPLC analysis. In kind it is ADME. To be noted: recombinant enzyme.
For series [12], the target named is T1, Cytochrome P450 1A1. Put plainly: Activity at recombinant CYP1A1 assessed as AM1 metabolite retention time at 10 uM by HPLC analysis. In kind it is ADME. The settings on record: recombinant enzyme.
Series [13] deals with T1, Cytochrome P450 1A1. Put plainly: Activity at recombinant CYP1A1 assessed as AM1 metabolite production at 10 uM after 20 mins by HPLC analysis. The series is classed as ADME. To be noted: recombinant enzyme.

Experimental findings from ChEMBL document CHEMBL1777768, “Comparative CYP1A1 and CYP1B1 substrate and inhibitor profile of dietary flavonoids” (Bioorg Med Chem, 2011) are described below.

Calls of active or inactive are those of the source. No cut-off for these calls is given here.

Turning to `COc1ccc(-c2cc(=O)c3c(OC)c(OC)c(OC)cc3o2)cc1O`, the Ki – broadly, a dissociation constant, usually derived from enzyme kinetics or from competition with a known ligand – in [1] is 630 nM; in [2], 670 nM. Also, the result in series [3] was Active. Besides, in series [4], the result was inactive. Also, the “Ratio IC50” value in [5] was determined as 100. The Time in series [6] and in series [7] was 8.9 min in each case. In [8], the share remaining (commonly the share of the starting amount still present when the sample was taken) at 20 min came out at 20.4%.
Turning to `COc1ccc(-c2cc(=O)c3c(O)cc(O)cc3o2)cc1` [ACACETIN], the outcome in series [9], in [10], in series [11] and in [13] was Active. The Time in [12] is 11.3 min. In addition, the share remaining at 20 min in [8] worked out at 15.9%.
`O=c1cc(-c2ccccc2)oc2cc(O)c(O)c(O)c12` [BAICALEIN]: the Ki in series [1] was determined as 1220 nM; in [2] it was 260 nM. Moreover, the “Ratio IC50” value in [5] is 1.7.
Consider `O=c1cc(-c2ccccc2)oc2cc(O)cc(O)c12` [CHRYSIN], for which the amount remaining at 20 min in series [8] came out at 15.9%.
`COc1cc2oc(-c3ccc(O)c(O)c3)cc(=O)c2c(O)c1OC` [CIRSILIOL]: the Ki in [1] and in series [2] was more than 800 nM throughout. In addition, the “Ratio IC50” value in series [5] turned out to be 8. In addition, the fraction remaining at 20 min in series [8] was 16.7%.
On to `COc1ccc(-c2cc(=O)c3c(O)c(OC)c(OC)cc3o2)cc1O` [EUPATORIN], for which the Ki came out at 210 nM in series [1] and 35 nM in series [2]. For the same molecule, the “Ratio IC50” value in series [5] is 100. The share remaining at 20 min in [8] turned out to be 47.8%.
Turning to `COc1cc(O)c2c(=O)cc(-c3ccc(O)cc3)oc2c1` [GENKWANIN], the Ki in series [1] and in series [2] was more than 2340 nM in each case. Moreover, the “Ratio IC50” value in [5] was 47. In addition, the share remaining at 20 min in series [8] is 34%.
`O=c1c(O)c(-c2cc(O)c(O)c(O)c2)oc2cc(O)cc(O)c12` [MYRICETIN]: the Ki in series [1] is 370 nM; in [2], 27 nM.
For the molecule `O=c1cc(-c2ccc(O)cc2)oc2cc(O)c(O)c(O)c12` [SCUTELLAREIN], the inhibition constant Ki in series [1] came out at 1640 nM; in series [2], 220 nM. Also, the “Ratio IC50” value in series [5] was 3.3. Further, the amount remaining at 20 min in series [8] stood at 12.6%.
For `COc1ccc(-c2cc(=O)c3c(OC)c(OC)c(OC)cc3o2)cc1OC` [SINENSETIN], the “Ratio IC50” value in series [5] was found to be 325. In addition, the fraction remaining at 20 min in series [8] turned out to be 68.9%.
